The source of these data is PubChem BioAssay AID256 (DTP/NCI, 2004).

In this assay the test system is CD2F1 mice, L1210 leukemia ip, survival T/C. The experiment in a line: NCI In Vivo Anticancer Drug Screen. Data for tumor model L1210 Leukemia (intraperitoneal) in CD2F1 (CDF1) mice. As to conditions: endpoint: mean survival time, higher = longer survival. The method, boiled down:
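Transplantable tumor in mice; compound-treated vs vehicle-treated groups. Read-out = treated/control ratio of the measured endpoint.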

Where [1] appears, read: dose: 100.0 mg/kg/injection, schedule: Q04DX003 (ip), vehicle: saline with Tween-80.
The mark [2] stands for this setting: dose: 200.0 mg/kg/injection, schedule: Q04DX003 (ip), vehicle: saline with Tween-80.
[3] abbreviates: dose: 400.0 mg/kg/injection, schedule: Q04DX003 (ip), vehicle: saline with Tween-80.
Setting [4] is: dose: 50.0 mg/kg/injection, schedule: Q01DX001 (ip), vehicle: saline.
[5] abbreviates: dose: 100.0 mg/kg/injection, schedule: Q01DX001 (ip), vehicle: saline.
Setting [6] is: dose: 200.0 mg/kg/injection, schedule: Q01DX001 (ip), vehicle: saline.
Where [7] appears, read: dose: 100.0 mg/kg/injection, schedule: Q04DX003 (ip), vehicle: saline.
[8] abbreviates: dose: 200.0 mg/kg/injection, schedule: Q04DX003 (ip), vehicle: saline.
Setting [9] is: dose: 400.0 mg/kg/injection, schedule: Q04DX003 (ip), vehicle: saline.
[10] abbreviates: dose: 400.0 mg/kg/injection, schedule: Q01DX001 (ip), vehicle: saline.
Setting [11] is: dose: 50.0 mg/kg/injection, schedule: Q01DX009 (ip), vehicle: saline with Tween-80.
[12] abbreviates: dose: 100.0 mg/kg/injection, schedule: Q01DX009 (ip), vehicle: saline with Tween-80.
The mark [13] stands for this setting: dose: 200.0 mg/kg/injection, schedule: Q01DX009 (ip), vehicle: saline with Tween-80.
Setting [14] is: dose: 400.0 mg/kg/injection, schedule: Q01DX009 (ip), vehicle: saline with Tween-80.
Where [15] appears, read: dose: 100.0 mg/kg/injection, schedule: Q04DX002 (ip), vehicle: saline with Tween-80.
Where [16] appears, read: dose: 200.0 mg/kg/injection, schedule: Q04DX002 (ip), vehicle: saline with Tween-80.
Setting [17] is: dose: 400.0 mg/kg/injection, schedule: Q04DX002 (ip), vehicle: saline with Tween-80.
Where [18] appears, read: dose: 200.0 mg/kg/injection, schedule: Q01DX001 (ip), vehicle: saline with Tween-80.
Setting [19] is: dose: 400.0 mg/kg/injection, schedule: Q01DX001 (ip), vehicle: saline with Tween-80.
Setting [20] is: dose: 100.0 mg/kg/injection, schedule: Q01DX001 (ip), vehicle: saline with Tween-80.
Setting [21] is: dose: 50.0 mg/kg/injection, schedule: Q04DX002 (ip), vehicle: saline with Tween-80.

“And” between values parts separate entries of the source, which are not always exact repeats. Identical values can stand only once. Toxic doses and inconclusive results are not listed.

Regarding `O=C1CC(c2ccccc2)CC(=O)O1`, the T/C under setting [1] was 102 % of control, the T/C under setting [2] was 100 % of control and the T/C under setting [3] was 92 % of control.

With `O=S1(=O)N=C2C3CCN(CC3)C2C(c2ccccc2)N1` (stereo not given), the T/C was 94 % of control under setting [4], 101 % of control under setting [5] and 101 % of control under setting [6].

As to `CCCCCCCCC(=O)N1CCCCC1`, the T/C is 101 % of control under setting [7], 102 % of control under setting [8] and 96 % of control under setting [9].

Consider `Oc1cc(O)c2c(c1)O[C@H](c1ccc(O)c(O)c1)[C@@H](O)C2`, for which the T/C is 101 % of control under setting [5], 101 % of control under setting [6] and 98 % of control under setting [10].

For `CNC(=O)c1n[nH]c(C)c1N`, the T/C is 97 % of control (dose: 25.0 mg/kg/injection, schedule: Q01DX009 (ip), vehicle: water); 98 % of control (dose: 50.0 mg/kg/injection, schedule: Q01DX009 (ip), vehicle: water); 101 % of control (dose: 100.0 mg/kg/injection, schedule: Q01DX009 (ip), vehicle: water); 98 % of control (dose: 200.0 mg/kg/injection, schedule: Q01DX009 (ip), vehicle: water); 101 % of control (dose: 400.0 mg/kg/injection, schedule: Q01DX009 (ip), vehicle: water).

Take `CNC(=O)c1cccc2ccccc12`: the T/C is 103 % of control under setting [4], 100 % of control under setting [5], 97 % of control under setting [6] and 95 % of control under setting [10].

With `C/C=C/CC1CCCCC1`, the T/C under setting [11] is 100 % of control, the T/C under setting [12] was 100 % of control and the T/C under setting [13] is 100 % of control.

As to `Cc1ccc(S(=O)(=O)NC(Cc2ccccc2)C(=O)CCl)cc1` (stereo not given), the T/C by setting is: under setting [11], 92 % of control; under setting [12], 96 % of control; under setting [13], 90 % of control.

Regarding `CCCCCCCCCCCCC(=O)N1CCOCC1`, the T/C by setting is: under setting [12], 105 % of control; under setting [13], 94 % of control; under setting [14], 103 % of control.

Regarding `CCN(C(=O)Nc1ccc(Cl)cc1)c1ccccc1`, the T/C is, setting by setting: under setting [12], 97 % of control; under setting [13], 100 % of control; under setting [14], 96 % of control.

Turning to `Nc1ncnc2c1[nH]c(=O)n2C1OC(CO)C(O)C1O` (stereo not given), the T/C by setting is: under setting [15], 95 % of control; under setting [16], 107 % of control; under setting [17], 95 % of control.

Take `CCC(=O)c1ccccc1NC(C)=O`: the T/C is 95 % of control under setting [2] and 97 % of control under setting [3].

As for `NC(=O)NC(=O)C1CCCCC1C(=O)O` (stereo not given), the T/C under setting [5] is 103 % of control, the T/C under setting [6] is 101 % of control and the T/C under setting [10] is 109 % of control.

For the compound `CCOC(=O)c1ccc(NS(=O)c2ccccc2)cc1` (stereo not given), the T/C is 95 % of control under setting [5]; 109 % of control under setting [7]; 95 % of control under setting [6]; 108 % of control under setting [8]; 94 % of control under setting [10]; 103 % of control under setting [9].

For `Oc1ccccc1/C=N/c1nc(-c2ccccc2)cs1.[Co].[O-]c1ccccc1/C=N/c1nc(-c2ccccc2)cs1`, the T/C runs as follows: under setting [18], 86 % of control; under setting [19], 89 % of control.

Take `COCCNc1ccc([N+](=O)[O-])cc1[N+](=O)[O-]`: the T/C is 92 % of control under setting [20]; 95 % of control under setting [12]; 92 % of control under setting [18]; 93 % of control under setting [13]; 96 % of control under setting [19]; 91 % of control under setting [14].

As to `O=C(O)C1CCC(C(=O)O)S1` (stereo not given), the T/C runs as follows: under setting [5], 96 % of control; under setting [6], 101 % of control; under setting [10], 110 % of control.

For the compound `[O]=[Nb]`, the T/C reads like this: (dose: 5.0 mg/kg/injection, schedule: Q04DX003 (ip), vehicle: saline) 102 % of control; (dose: 10.0 mg/kg/injection, schedule: Q04DX003 (ip), vehicle: saline) 98 % of control.

On to `COc1ccc(NC(=O)Oc2ccc(Cl)cc2Cl)cc1`, for which the T/C was 112 % of control (dose: 25.0 mg/kg/injection, schedule: Q01DX009 (ip), vehicle: saline with Tween-80); 100 % of control (dose: 25.0 mg/kg/injection, schedule: Q04DX002 (ip), vehicle: saline with Tween-80); 112 % of control under setting [11]; 100 % of control under setting [21]; 101 % of control under setting [12]; 95 % of control and 98 % of control under setting [15]. For the same compound, the T/C under setting [17] is 102 % of control.

In the case of `O=c1[nH]cc(F)c(=O)n1-c1ccco1`, the T/C reads like this: under setting [1], 111 % of control; under setting [2], 166 % of control.

Consider `[Cl][Pt+2][Cl].[NH-]c1cc(Cl)c(Cl)c(Cl)c1[NH-]`, for which the T/C is, setting by setting: (dose: 2.5 mg/kg/injection, schedule: Q01DX009 (ip), vehicle: saline with Tween-80) 105 % of control; (dose: 5.0 mg/kg/injection, schedule: Q01DX009 (ip), vehicle: saline with Tween-80) 100 % of control; (dose: 10.0 mg/kg/injection, schedule: Q01DX009 (ip), vehicle: saline with Tween-80) 100 % of control; (dose: 20.0 mg/kg/injection, schedule: Q01DX009 (ip), vehicle: saline with Tween-80) 107 % of control; (dose: 40.0 mg/kg/injection, schedule: Q01DX009 (ip), vehicle: saline with Tween-80) 94 % of control.

With `CC(c1ccccc1)S(=O)[O-].[C-]#[O+].[C-]#[O+].[Fe+6].[c-]1[c-][c-][cH-][c-]1` (stereo not given), the T/C runs as follows: (dose: 25.0 mg/kg/injection, schedule: Q04DX003 (ip), vehicle: saline with Tween-80) 94 % of control; (dose: 50.0 mg/kg/injection, schedule: Q04DX003 (ip), vehicle: saline with Tween-80) 100 % of control; under setting [1], 97 % of control.

Consider `NC(N)=NNc1ccccc1`, for which the T/C is 100 % of control (dose: 6.25 mg/kg/injection, schedule: Q01DX009 (ip), vehicle: saline); 100 % of control (dose: 12.5 mg/kg/injection, schedule: Q01DX009 (ip), vehicle: saline); 96 % of control (dose: 25.0 mg/kg/injection, schedule: Q01DX009 (ip), vehicle: saline).

As to `CCCCCCCCCCCC(=O)OCCN(C=O)C[n+]1ccccc1`, under “dose: 100.0 mg/kg/injection, schedule: Q04DX002 (ip), vehicle: saline”, the T/C was 101 % of control.

With `COc1cccc2c1CCC1(O)OC(=O)CC21` (stereo not given), the T/C by setting is: under setting [5], 98 % of control; under setting [6], 98 % of control; under setting [10], 95 % of control.

Take `COc1ccc(C)c2nc3ccccc3nc12`: the T/C is 98 % of control under setting [20], 97 % of control under setting [18] and 98 % of control under setting [19].

As for `CC1OC(OC2C(O)C(CO)OC(OC3C(C(=O)O)OC(OC4CCC5(C)C(CCC6(C)C5CC=C5C7CC(C)(C)C(O)C(O)C7(CO)C(O)CC56C)C4(C)C)C(OC4OC(CO)C(O)C(O)C4O)C3O)C2O)C(O)C(O)C1O` (stereo not given), the T/C is 98 % of control under setting [21], 102 % of control under setting [15] and 107 % of control under setting [16].

Take `N#Cc1cn(C2OC(CO)C(O)C2O)c2ncnc(NC(=O)c3ccccc3)c12` (stereo not given): the T/C reads like this: (dose: 0.78 mg/kg/injection, schedule: Q01DX001 (ip), vehicle: suspension in saline) 95 % of control; (dose: 1.56 mg/kg/injection, schedule: Q01DX001 (ip), vehicle: suspension in saline) 106 % of control; (dose: 3.13 mg/kg/injection, schedule: Q01DX001 (ip), vehicle: suspension in saline) 110 % of control; (dose: 6.25 mg/kg/injection, schedule: Q01DX001 (ip), vehicle: suspension in saline) 108 % of control; (dose: 12.5 mg/kg/injection, schedule: Q01DX001 (ip), vehicle: suspension in saline) 111 % of control.
